According to EPA's ToxValDB 9.5 (doi:10.2903/j.efsa.2012.2799):

What follows are molecules tested on Canidae. Conditions: acute; Dog Other.

Compared with `CCOc1ccc2c(c1)C(C)=CC(C)(C)N2` [Ethoxyquin], `CCOC(=O)CSc1nc(C(C)(C)C)nn1C(=O)N(C)C` [Triazamate] is lower in NOAEL: 50 mg/kg-day for the first, 1.5 mg/kg-day for the second.

Same assay, conditions: chronic; duration: 1 years; Dog Other

`CCOP(=O)(SC(C)CC)N1CCSC1=O` (configuration not stated) [Fosthiazate] was tested, and the NOAEL was 0.5 mg/kg-day.

Same assay, conditions: chronic; duration: 2 years; Dog Other

For `Cc1ccc(N=CN(C)C=Nc2ccc(C)cc2C)c(C)c1` [Amitraz], the NOAEL was 1 mg/kg-day.

Same assay, conditions: short-term; duration: 2 weeks; Dog Other

Work on `COc1cccc(C(=O)NN(C(=O)c2cc(C)cc(C)c2)C(C)(C)C)c1C` [Methoxyfenozide] yielded an NOAEL of 20 mg/kg-day.

Same assay, conditions: subchronic; duration: 1 months; Dog Other

For `O=C(O)COC(=O)c1cc(Oc2ccc(C(F)(F)F)cc2Cl)ccc1[N+](=O)[O-]`, the NOAEL was 60 mg/kg-day.

Same assay, conditions: subchronic; duration: 90 days; Dog Other

First: CCOP(=O)(SC(C)CC)N1CCSC1=O (configuration not stated) [Fosthiazate]
Second: Cc1ccc(N=CN(C)C=Nc2ccc(C)cc2C)c(C)c1 [Amitraz]
The NOAEL of the first is lower: 0.5 mg/kg-day for the first, 1 mg/kg-day for the second.

With `C[n+]1ccc(-c2cc[n+](C)cc2)cc1` [Paraquat] the NOAEL was 0.5 mg/kg-day.

These molecules were tested on Oryctolagus sp.. Conditions: developmental; development.

First: CON(C)C(=O)Nc1ccc(Cl)c(Cl)c1 [Linuron]
Second: Cc1cc(Cl)ccc1OCCCC(=O)O [Thitrol]
The NOAEL of the first is higher: 10 mg/kg-day for the first, 5 mg/kg-day for the second.

Compared with `COC(=O)N(OC)c1ccccc1COc1ccn(-c2ccc(Cl)cc2)n1` [Pyraclostrobin], `CC(C)N(C(=O)CCl)c1ccccc1` [Propachlor] is higher in NOAEL: 3 mg/kg-day for the first, 58 mg/kg-day for the second.

Compared with `CN1COCN(Cc2cnc(Cl)s2)/C1=N/[N+](=O)[O-]` [Thiamethoxam], `CS(=O)(=O)c1ccc(C(=O)C2C(=O)CCCC2=O)c(Cl)c1COCC(F)(F)F` [Tembotrione] is lower in NOAEL: 50 mg/kg-day for the first, 1 mg/kg-day for the second.

Going from `ClC1C(Cl)C(Cl)C(Cl)C(Cl)C1Cl` (configuration not stated) [Lindane] to `O=C(Nc1ccccc1)Nc1cnns1` [Thidiazuron], the NOAEL rises from 5 mg/kg-day to 25 mg/kg-day.

Same assay, conditions: reproduction developmental

`c1nc[n]([Sn]([CH]2CCCCC2)([CH]2CCCCC2)[CH]2CCCCC2)n1` [Azocyclotin] and `C1CC[CH]([Sn+]([CH]2CCCCC2)[CH]2CCCCC2)CC1.[OH-]` [Cyhexatin] are the same in NOAEL: 2 mg/kg-day for the first, 2 mg/kg-day for the second.

Going from `CC1=C(C)S(=O)(=O)CCS1(=O)=O` [Dimethipin] to `O=C(O)C1(C(=O)Nc2ccc(Cl)cc2Cl)CC1` [Cyclanilide], the NOAEL falls from 20 mg/kg-day to 3 mg/kg-day.

First: CN/C(=N\[N+](=O)[O-])NCc1cnc(Cl)s1 [Clothianidin]
Second: O=C(Nc1ccccc1)Nc1ccnc(Cl)c1 [Forchlorfenuron]
The NOAEL of the first is lower: 10 mg/kg-day for the first, 100 mg/kg-day for the second.

First: CC(Oc1ccc(Oc2ccc(Cl)cc2Cl)cc1)C(=O)O (configuration not stated) [Diclofop]
Second: CC(=O)[O][Sn]([c]1ccccc1)([c]1ccccc1)[c]1ccccc1 [Triphenyltin acetate]
The NOAEL of the first is higher: 3 mg/kg-day for the first, 0.1 mg/kg-day for the second.

In the case of `[OH-].c1cc[c]([Sn+]([c]2ccccc2)[c]2ccccc2)cc1` [Triphenyltin hydroxide], the NOAEL is reported as 0.1 mg/kg-day.

These molecules were tested on Mus musculus. Conditions: short-term; duration: 14 days.

`CC1(c2ccc(Oc3ccccc3)cc2)OC(=O)N(Nc2ccccc2)C1=O` (configuration not stated) [Famoxadone] was tested, and the NOAEL was 20 mg/kg-day.

What follows are molecules tested on Rattus norvegicus. Conditions: acute.

`CCOP(=S)(OCC)SCSCC` [Phorate] and `CCOP(=S)(OCC)SCCSCC` [Disulfoton] are the same in NOAEL: 0.3 mg/kg-day for the first, 0.3 mg/kg-day for the second.

First: CCCSP(=O)(OCC)Oc1ccc(Br)cc1Cl (configuration not stated) [Profenofos]
Second: CCOP(=S)(OCC)Oc1ccc([N+](=O)[O-])cc1 [Parathion]
The NOAEL of the first is higher: 100 mg/kg-day for the first, 0.5 mg/kg-day for the second.

Compared with `CCNc1nc(Cl)nc(NCC)n1` [Simazine], `CCOP(=S)(OCC)SCSC(C)(C)C` [Terbufos] is lower in NOAEL: 2.5 mg/kg-day for the first, 0.2 mg/kg-day for the second.

Going from `OC(c1ccc(Cl)cc1)(c1ccc(Cl)cc1)C(Cl)(Cl)Cl` [Dicofol] to `COC(=O)N(C(=O)N1CO[C@@]2(C(=O)OC)Cc3cc(Cl)ccc3C2=N1)c1ccc(OC(F)(F)F)cc1` [Indoxacarb], the NOAEL falls from 15 mg/kg-day to 12.5 mg/kg-day.

Same assay, conditions: developmental; development

First: C=CC1(C)OC(=O)N(c2cc(Cl)cc(Cl)c2)C1=O (configuration not stated) [Vinclozolin]
Second: CC12CC1(C)C(=O)N(c1cc(Cl)cc(Cl)c1)C2=O (configuration not stated) [Procymidone]
The NOAEL of the first is higher: 6 mg/kg-day for the first, 3.5 mg/kg-day for the second.

Going from `S=C1NCCN1` [4,5-Dihydro-2-mercaptoimidazole] to `CCN(CC)C(=O)SCc1ccc(Cl)cc1` [Thiobencarb], the NOAEL rises from 5 mg/kg-day to 25 mg/kg-day.

Work on `COCC(=O)N(c1c(C)cccc1C)[C@H](C)C(=O)OC` [Metalaxyl-M] yielded an NOAEL of 50 mg/kg-day.

Same assay, conditions: repeat dose other

`N#Cc1c(Cl)c(Cl)c(Cl)c(C#N)c1Cl` [Chlorothalonil] was tested, and the NOAEL was 60 mg/kg-day.

Same assay, conditions: reproduction developmental

Compared with `CCNc1nc(Cl)nc(NC(C)C)n1` [Atrazine], `CC(C)(C)[C@@H](O)/C(=C\c1ccc(Cl)cc1Cl)n1cncn1` [Diniconazole-M] is higher in NOAEL: 2.5 mg/kg-day for the first, 5 mg/kg-day for the second.

With `CN/C(=N\[N+](=O)[O-])NCc1cnc(Cl)s1` [Clothianidin] the NOAEL was 10 mg/kg-day.

Same assay, conditions: short-term; duration: 4 days

`COC[C@H](C)N(C(=O)CCl)c1c(C)csc1C` [Dimethenamid-P] gave an NOAEL of 25 mg/kg-day.

Same assay, conditions: subchronic; duration: 90 days

First: CC(C)N1C(=O)c2ccccc2NS1(=O)=O [Bentazone]
Second: COC(=O)c1c(Cl)c(Cl)c(C(=O)OC)c(Cl)c1Cl [Chlorthal-dimethyl]
The NOAEL of the first is lower: 25 mg/kg-day for the first, 50 mg/kg-day for the second.
